Measurements taken from patent US20070009593A1, “Methods of treating cancer” (Indianan University Advanced Research, priority 2002, published 2007).
Peptide text beside a SMILES is read from it. * marks the point of attachment. Cbz = O=C(OCc1ccccc1)*

Legend:
[1] = test system: Caco 2 cells; assay: proliferation / combination assay in colon cancer cells; format: cell-based; conditions: Homo sapiens; Caco 2, single agent; read-out: IC50
[2] = test system: A549; assay: MTT assay, NSCLC cell line; format: cell-based; conditions: Homo sapiens; for IC80: A549, MTT assay, single agent; for IC50: MTT assay
[3] = test system: H522; assay: MTT assay, NSCLC cell line; format: cell-based; conditions: Homo sapiens; for IC50: NCI-H522; for IC80: NCI-H522, single agent
[4] = test system: H23; assay: MTT assay, NSCLC cell line; format: cell-based; conditions: Homo sapiens, NCI-H23
[5] = test system: H460; assay: MTT assay, NSCLC cell line; format: cell-based; conditions: Homo sapiens; for IC50: NCI-H460; for IC80: NCI-H460, single agent
[6] = test system: MDA-231; assay: MTT assay, breast cancer line; format: cell-based; conditions: Homo sapiens, MDA-MB-231; MDA-231, 48 hours, MTT, single agent; read-out: IC50
Procedure: The drugs were tested together at the ratio of their IC50 as single agents, over a 4-log range of concentrations. […] Viable cell number was measured by MTT assay.

[7] = molecular target: T1, chymotryptic active site of the proteasome (ZGGL-AMC cleavage) (Homo sapiens, UniProt P28074); assay: fluorometric assay of ZGGL-AMC cleavage by Caco 2 cells; format: cell-based; conditions: for ZGGL-AMC cleavage: Caco 2 cells (DMSO control 0.287)
T1 construct: Fluorometric assay of ZGGL-AMC cleavage by Caco 2 cells; endogenous in cells; host or cells: Caco 2

[8] = test system: HUVEC; assay: HUVEC cell spreading assay; format: cell-based, human; conditions: 100 μM, same spreading conditions
Procedure: Cells were fixed in 3.7% formaldehyde in PBS, blocked and stained with Oregon-green phalloidin 514 (Molecular Probes), and then digitally photographed using a Zeiss inverted fluorescence microscope equipped with a CCD camera. Cell areas were measured on the digital images using the Spot program (Diagnostic Imaging).

[9] = test system: H23; assay: cell survival at 60 hours, amprenavir; format: cell-based; conditions: H23, 60 hours, FIG. 4
Excerpt: (§1) Three cancer cell lines (A549, H460, and H23) where treated with varying doses of amprenavir.

[10] = test system: H460; assay: cell survival at 60 hours, amprenavir; format: cell-based; conditions: H460, 60 hours, FIG. 4
Excerpt: as §1

[11] = test system: A549; assay: cell survival at 60 hours, amprenavir; format: cell-based; conditions: A549, 60 hours, FIG. 4
Excerpt: as §1

Cc1ccc(-c2cc(C(F)(F)F)nn2-c2ccc(S(N)(=O)=O)cc2)cc1 [Celecoxib, celecoxib]
IC50 [1]: 60000 nM

CC(=O)O[C@@]12CO[C@@H]1C[C@H](O)[C@@]1(C)C(=O)[C@H](O)C3=C(C)[C@@H](OC(=O)[C@H](O)[C@@H](NC(=O)OC(C)(C)C)c4ccccc4)C[C@@](O)([C@@H](OC(=O)c4ccccc4)[C@H]21)C3(C)C [Docetaxel, docetaxel]
IC80 [2]: > 50 nM | IC50 [2]: 4.5 nM | IC50 [1]: 5 nM | IC50 [3]: 4.9 nM | IC80 [3]: > 50 nM | IC50 [4]: 5.5 nM | IC50 [5]: 5 nM | IC80 [5]: > 50 nM | IC50 [6]: 10 nM

O=c1[nH]cc(F)c(=O)[nH]1 [Formula 5-FU, 5-fluorouracil]
IC50 [1]: 28000 nM

CC(=O)N[C@@H](CSC(=O)[C@]1([C@@H](O)C(C)C)NC(=O)[C@H](C)[C@@H]1O)C(=O)O [Lactacystin, lactacystin]
blocks substrate cleavage (ZGGL-AMC) ([7]; 5 μM, Caco 2 cells): over 95% | ZGGL-AMC cleavage ([7]; 5 μM): 0.022 pmol·s^1− 10^6 cells

CC(C)[C@H](NC(=O)OCc1ccccc1)C(=O)N[C@H](C=O)Cc1ccccc1 [MDL 28, 170] (Cbz-Val-Phe-aldehyde)
blocked spreading [8]: 21%

O=C(O)/C(S)=C/c1ccc(I)cc1 [PD150606]
ZGGL-AMC cleavage ([7]; 50 μM): 0.187 pmol·s^1− 10^6 cells | blocks ZGGL-AMC cleavage ([7]; Caco 2 cells (50 μM in table)): less than 30%

CC(=O)O[C@H]1C(=O)[C@@]2(C)[C@H]([C@H](OC(=O)c3ccccc3)[C@]3(O)C[C@H](OC(=O)[C@H](O)[C@@H](NC(=O)c4ccccc4)c4ccccc4)C(C)=C1C3(C)C)[C@]1(OC(C)=O)CO[C@@H]1C[C@@H]2O [Paclitaxel, paclitaxel]
IC80 [2]: > 200 nM | IC50 [2]: 90 nM | IC50 [1]: 400 nM | IC50 [3]: 105 nM | IC80 [3]: > 200 nM | IC50 [4]: 110 nM | IC50 [5]: 120 nM | IC80 [5]: > 200 nM

amprenavir
IC50 [9]: 4000 to 5000 nM | IC50 [10]: 4000 to 5000 nM | IC50 [11]: 4000 to 5000 nM
